# Experimental data from patent US20220023386A1, “METHOD FOR THE TREATMENT OR PREVENTION OF OSTEOARTHRITIS” (Chondropeptix B.V., priority 2016, published 2022).
# Legend:
# Assay in all cases: Expression of OA chondrocyte phenotype marker genes by RT-qPCR after peptide exposure
# Type in all cases: cell-based, human
# [1] = system: OA articular chondrocytes; design: key: [+] denotes a significantly increased expression of chondrogenic marker BAPX1/NKX3.2 or a decreased expression of OA chondrocyte phenotypic markers ALP, MMP13, ADAMTS5, COX2, COL10A and RUNX2 in OA articular chondrocytes, in comparison to untreated OA articular chondrocytes.; [−] denotes the absence of a significant effort or a significantly decreased expression of chondrogenic marker BAPX1/NKX3.2 or an increased expression of OA chondrocyte phenotypic markers ALP, MMP13, ADAMTS5, COX2, COL10A and RUNX2 in OA articular chondrocytes, in comparison to untreated OA articular chondrocytes; conditions: vs untreated OA articular chondrocytes
# [2] = system: OA articular chondrocytes; design: key: [+] denotes a significantly increased expression of chondrogenic marker BAPX1/NKX3.2 or a decreased expression of OA chondrocyte phenotypic markers ALP, MMP13, ADAMTS5, COX2, COL10A and RUNX2 in OA articular chondrocytes, in comparison to untreated OA articular chondrocytes.; [−] denotes the absence of a significant effort or a significantly decreased expression of chondrogenic marker BAPX1/NKX3.2 or an increased expression of OA chondrocyte phenotypic markers ALP, MMP13, ADAMTS5, COX2, COL10A and RUNX2 in OA articular chondrocytes, in comparison to untreated OA articular chondrocytes; conditions: Table 2 (FIGS. 2-8), peptide 10 nM, 24 hours, vs untreated OA articular chondrocytes
# Experimental: The action of 20-mer peptides (10 nM) of SEQ ID NO: 2-15 (peptides with 1 amino acids intervals (19 amino acid overlap)) and SEQ ID NO:49 on the expression of the indicated genes was determined on a validated pool of passage 2 OA human articular chondrocytes (n=18) and compared to full-length recombinant BMP-7 (1 nM). Samples were harvested after 24 hours and analyzed for indicated genes by RT-qPCR (corrected for 28S rRNA expression and relative to control conditions (no peptide exposure)). In the graphs, numbers on the x-axis represent individual peptides according to their SEQ ID NO:, error bars represent mean±SEM, statistical differences were calculated (one-way ANOVA with bonferroni correction) to control condition. *=p<0.05 lower than control condition for COL10A1, ALP, RUNX2, COX-2, MMP13 and ADAMTS5 and higher than control condition for BAPX1/NKX3.2. Random peptide is a peptide according to SEQ ID NO: 49 with amino acid sequence […].
# [3] = system: OA articular chondrocytes; design: key to ADAMTS5 expression: [+] denotes a significantly increased expression of chondrogenic marker BAPX1/NKX3.2 or a decreased expression of OA chondrocyte phenotypic markers ALP, MMP13, ADAMTS5, COX2, COL10A and RUNX2 in OA articular chondrocytes, in comparison to untreated OA articular chondrocytes.; [−] denotes the absence of a significant effort or a significantly decreased expression of chondrogenic marker BAPX1/NKX3.2 or an increased expression of OA chondrocyte phenotypic markers ALP, MMP13, ADAMTS5, COX2, COL10A and RUNX2 in OA articular chondrocytes, in comparison to untreated OA articular chondrocytes; conditions: for ADAMTS5 expression: Table 3, N- and C-terminally truncated peptides, vs untreated OA articular chondrocytes; for suppression of the OA chondrocyte phenotype: independent of the tested concentration (1000, 100, 10 and 1 nM were tested)
# [4] = Table 2 (FIGS. 2-8), peptide 10 nM, 24 hours
# [5] = Table 3, N- and C-terminally truncated peptides
Substance,"MMP13 expression [1, 4]",ADAMTS5 expression [2],ALP expression [2],BAPX1/NKX3.2 expression [2],COL10A expression [2],COX-2 expression [2],RUNX2 expression [2],suppression of the OA chondrocyte phenotype [3],further results
2 (WIIAPEGYAAYYSEGESAFP; homo sapiens) [compound 2],−,−,−,−,−,+,−,,
3 (IIAPEGYAAYYSEGESAFPL; homo sapiens) [compound 3],−,−,−,−,−,+,−,,
4 (IAPEGYAAYYSEGESAFPLN; homo sapiens) [compound 4],−,−,−,−,−,+,−,,
5 (APEGYAAYYSEGESAFPLNS; homo sapiens) [compound 5],−,+,+,+,+,+,+,,
6 (PEGYAAYYSEGESAFPLNSY; homo sapiens) [compound 6],−,+,+,+,+,+,+,,
7 (EGYAAYYSEGESAFPLNSYM; homo sapiens) [compound 7],,+,+,+,+,+,+,,
8 (GYAAYYSEGESAFPLNSYMN; homo sapiens) [compound 8],+,+,+,+,+,+,+,,
9 (YAAYYSEGESAFPLNSYMNA; homo sapiens) [compound 9],+,+,+,+,+,+,+,,
10 (AAYYSEGESAFPLNSYMNAT; homo sapiens) [compound 10],+,+,+,+,+,+,+,,
11 (AYYSEGESAFPLNSYMNATN; homo sapiens) [compound 11],+,+,+,+,+,+,+,,
12 (YYSEGESAFPLNSYMNATNH; homo sapiens) [compound 12],+,+,+,+,+,+,+,,
13 (YSEGESAFPLNSYMNATNHA; homo sapiens) [compound 13],+,+,+,+,+,+,+,,
14 (SEGESAFPLNSYMNATNHAI; homo sapiens) [compound 14],−,−,−,−,−,−,+,,
15 (EGESAFPLNSYMNATNHAIV; homo sapiens) [compound 15],−,−,−,−,−,−,+,,
17 (APEGYAAYYSEGESAFPLNS; homo sapiens) [compound 17],,,,,,,,,"ALP expression [1, 5]: +; BAPX1/NKX3.2 expression [1, 5]: +; COL10A expression [1, 5]: +; COX-2 expression [1, 5]: +; MMP13 expression [1, 5]: −; RUNX2 expression [1, 5]: +; ADAMTS5 expression [3]: +"
18 (PEGYAAYYSEGESAFPLNS; homo sapiens) [compound 18],,,,,,,,,"ALP expression [1, 5]: +; BAPX1/NKX3.2 expression [1, 5]: +; COL10A expression [1, 5]: +; COX-2 expression [1, 5]: +; MMP13 expression [1, 5]: −; RUNX2 expression [1, 5]: +; ADAMTS5 expression [3]: +"

Substance,"MMP13 expression [1, 4]",ADAMTS5 expression [2],ALP expression [2],BAPX1/NKX3.2 expression [2],COL10A expression [2],COX-2 expression [2],RUNX2 expression [2],suppression of the OA chondrocyte phenotype [3],further results
19 (EGYAAYYSEGESAFPLNS; homo sapiens) [compound 19],,,,,,,,,"ALP expression [1, 5]: +; BAPX1/NKX3.2 expression [1, 5]: +; COL10A expression [1, 5]: +; COX-2 expression [1, 5]: +; MMP13 expression [1, 5]: +; RUNX2 expression [1, 5]: +; ADAMTS5 expression [3]: +"
20 (GYAAYYSEGESAFPLNS; homo sapiens) [compound 20],,,,,,,,,"ALP expression [1, 5]: +; BAPX1/NKX3.2 expression [1, 5]: +; COL10A expression [1, 5]: +; COX-2 expression [1, 5]: +; MMP13 expression [1, 5]: +; RUNX2 expression [1, 5]: +; ADAMTS5 expression [3]: +"
21 (YAAYYSEGESAFPLNS; homo sapiens) [compound 21],,,,,,,,,"ALP expression [1, 5]: +; BAPX1/NKX3.2 expression [1, 5]: +; COL10A expression [1, 5]: +; COX-2 expression [1, 5]: +; MMP13 expression [1, 5]: +; RUNX2 expression [1, 5]: +; ADAMTS5 expression [3]: +"
AAYYSEGESAFPLNSYMNAT (homo sapiens) [SEQ ID NO: 10],,,,,,,,efficiently suppressed,
APEGYAAYYSEGESAFPLNS (homo sapiens) [SEQ ID NO: 5],,,,,,,,efficiently suppressed,
AYYSEGESAFPLNSYMNATN (homo sapiens) [SEQ ID NO: 11],,,,,,,,efficiently suppressed,
EGESAFPLNSYMNATNHAIV (homo sapiens) [SEQ ID NO: 15],,,,,,,,efficiently suppressed,
EGYAAYYSEGESAFPLNSYM (homo sapiens) [SEQ ID NO: 7],,,,,,,,efficiently suppressed,
IAPEGYAAYYSEGESAFPLN (homo sapiens) [SEQ ID NO: 4],,,,,,,,efficiently suppressed,
IIAPEGYAAYYSEGESAFPL (homo sapiens) [SEQ ID NO: 3],,,,,,,,efficiently suppressed,
PEGYAAYYSEGESAFPLNSY (homo sapiens) [SEQ ID NO: 6],,,,,,,,efficiently suppressed,
SEGESAFPLNSYMNATNHAI (homo sapiens) [SEQ ID NO: 14],,,,,,,,efficiently suppressed,
WIIAPEGYAAYYSEGESAFP (homo sapiens) [SEQ ID NO: 2],,,,,,,,efficiently suppressed,
YAAYYSEGESAFPLNSYMNA (homo sapiens) [SEQ ID NO: 9],,,,,,,,efficiently suppressed,
YSEGESAFPLNSYMNATNHA (homo sapiens) [SEQ ID NO: 13],,,,,,,,efficiently suppressed,
YYSEGESAFPLNSYMNATNH (homo sapiens) [SEQ ID NO: 12],,,,,,,,efficiently suppressed,
